The values that follow come from ChEMBL document CHEMBL6115042, “Hydroquinazoline Derivatives as Novel Natriuretic Peptide Receptor 1 (NPR1) Activators” (ACS Med Chem Lett, 2025).

The nature of test [1]: Activation of monkey NPR1 expressed in CHO-K1 cells assessed as increase in cGMP production measured after 30 mins by HTRF assay. The class given is cell-based. The note with it: Macaca mulatta, CHO-K1, 0.5 h. A general note: Time-resolved FRET reads energy transfer from a long-lived donor to a nearby acceptor.
The target of test [2] is T1, Atrial natriuretic peptide receptor 1 (Homo sapiens, UniProt P16066).
T1 sequence (P16066 whole entry): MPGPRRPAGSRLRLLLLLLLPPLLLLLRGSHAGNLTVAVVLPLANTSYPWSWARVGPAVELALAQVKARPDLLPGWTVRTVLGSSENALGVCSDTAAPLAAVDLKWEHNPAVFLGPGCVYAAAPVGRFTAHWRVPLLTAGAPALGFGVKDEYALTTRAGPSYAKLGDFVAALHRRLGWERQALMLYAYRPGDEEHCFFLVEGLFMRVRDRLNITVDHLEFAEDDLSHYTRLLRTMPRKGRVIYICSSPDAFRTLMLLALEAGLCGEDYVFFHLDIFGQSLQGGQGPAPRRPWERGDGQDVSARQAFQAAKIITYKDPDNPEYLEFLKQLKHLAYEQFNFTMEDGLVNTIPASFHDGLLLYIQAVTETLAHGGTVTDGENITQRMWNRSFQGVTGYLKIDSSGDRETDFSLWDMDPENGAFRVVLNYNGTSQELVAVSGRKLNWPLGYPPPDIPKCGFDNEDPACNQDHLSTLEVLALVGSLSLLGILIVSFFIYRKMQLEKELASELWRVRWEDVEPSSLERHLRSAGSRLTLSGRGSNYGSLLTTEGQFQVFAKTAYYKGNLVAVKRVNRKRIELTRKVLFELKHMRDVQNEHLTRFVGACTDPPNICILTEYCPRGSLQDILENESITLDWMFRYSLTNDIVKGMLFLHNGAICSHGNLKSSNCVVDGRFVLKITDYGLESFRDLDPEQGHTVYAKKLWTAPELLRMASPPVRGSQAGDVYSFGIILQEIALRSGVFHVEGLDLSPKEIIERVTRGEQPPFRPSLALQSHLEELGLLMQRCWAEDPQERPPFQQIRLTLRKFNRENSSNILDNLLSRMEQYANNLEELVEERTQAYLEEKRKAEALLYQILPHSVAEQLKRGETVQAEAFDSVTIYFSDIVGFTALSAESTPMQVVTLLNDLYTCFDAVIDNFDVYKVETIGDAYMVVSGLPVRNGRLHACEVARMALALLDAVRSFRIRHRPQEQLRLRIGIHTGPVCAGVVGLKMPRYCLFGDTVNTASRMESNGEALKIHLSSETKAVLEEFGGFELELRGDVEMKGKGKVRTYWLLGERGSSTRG
The experiment in a line: Activation of human NPR1 expressed in CHO-K1 cells assessed as increase in cGMP production measured after 30 mins by HTRF assay. The class given is cell-based.

As usually defined, the AC50 is the midpoint of the concentration-response curve, whichever way the signal moves. As to `CC[C@H]([C@H]1CC[C@H](C(=O)O)CC1)N(C)c1nc2c(c(N[C@@H](CN3C4CCCC3CC4)c3ccn(C)n3)n1)C[C@H](c1cccc(F)c1)CC2`, the AC50 in test [1] is 272 nM.
Still for that read-out and setting: as for `CC[C@@H](N(C)c1nc2c(c(N[C@@H](CN3CCCCCC3)c3cnn(C)c3)n1)C[C@H](c1cccc(F)c1)CC2)C12CC(C(=O)O)(C1)C2`, the figure is 10 nM.
For the compound `CC[C@@H](Nc1nc2c(c(N[C@@H](CN3CCC[C@H](C)C3)c3cnn(C)c3)n1)C[C@](C)(c1ccc(F)cc1)CC2)C1CCC(C(=O)O)CC1` (some centres undefined), the AC50 stood at 68 nM in test [1] and 72 nM in test [2].
On to `CC[C@@H](Nc1nc2c(c(N[C@@H](CN3CCC[C@H](C)C3)c3cnn(C)c3)n1)C[C@](C)(c1cccc(F)c1)CC2)C1CCC(C(=O)O)CC1` (some centres undefined), for which the AC50 in test [1] amounted to 44 nM; in test [2], 42 nM.
Turning to `CC[C@@H](Nc1nc2c(c(N[C@@H](CN3CCCCCC3)c3cnn(C)c3)n1)C[C@H](c1cccc(F)c1)CC2)C1CCC(C(=O)O)CC1` (some centres undefined), the AC50 in test [1] was 45 nM; in test [2], 66 nM.
Consider `CC[C@@H](Nc1nc2c(c(N[C@@H](CN3C4CCCC3CC4)c3ccccc3)n1)C[C@H](c1ccccc1)CC2)[C@H]1CC[C@H](C(=O)O)CC1`, for which the AC50 in test [1] worked out at 138 nM.
